Here are results for 1 substance from patent US20220096516A1, “OLIGONUCLEOTIDE MOLECULE AND APPLICATION THEREOF IN TUMOR THERAPY” (Ractigen Therapeutics, priority 2019, published 2022).

d = 2'-deoxy (DNA); r = 2'-OH (RNA)

The test system of one data set is U87MG transplanted tumor. The experiment in a line: U87MG transplanted tumor growth in nude mice. Details: species or system BALB/c nude mice. The following applies: U87MG xenograft, day 13; saRNA (in vivo-jetPEI) 1 mg/kg intratumor days 1, 4, 7, 10; regorafenib 3 mg/kg intragastric daily day 1-12; control 406%. The method, then:
To prepare the saRNA formulation, in vivo-jetPEI (201-10G, Polyplus-transfection, France) was adopted as an saRNA delivery system. The preparation process is briefly described as follows: an saRNA was first diluted in a 10% glucose solution to give a solution A; a required amount of in vivo-jetPEI was diluted in 10% glucose solution to give a solution B; then, equal volumes of the solution A and the solution B were mixed (nitrogen-to-phosphorus ratio: 8; final concentration of glucose: 5%). After mixing the mixture was let to stand under room temperature for 15 minutes for later use.
The glioma cell line U87MG were grown to the logarithmic phase, counted, then subcutaneously inoculated at a concentration of 9×10^7 cells/mL into the right armpit of BALB/c nude mice at 0.1 mL per mouse. […] After the initial administration, the long diameter and short diameter of each tumor were measured with a vernier caliper every two days. The tumor volume was calculated according to the formula V=(l×w^2)/2, wherein 1 represents the longest diameter of the tumor and w represents the diameter parallel to the surface of the tumor and perpendicular to the long diameter. A tumor growth curve and size and morphology of the tumor anatomy were recorded during the administration.

The subject of data set [1] is prostatic cancer cell line PC3. The experiment in a line: Cell viability by CCK-8 method, PC3. In kind it is cell-based, human. Particulars: PC3, 10 nM, 72 h, FIG. 7B. The protocol: (§1) 8 LHPP promoter-targeting saRNAs were individually transfected into cancer cells at 10 nM for 72 h. In FIG. 7A, the expression level of LHPP mRNA was analyzed by RT-qPCR. In FIG. 7B, cell viability in the saRNA treatment group was evaluated by the CCK-8 method and recorded as a percentage relative to the viability of cells in a control (Mock) treatment group.
The cell viability was detected by the following CCK-8 method: the cCells were plated into a 96-well plate at 3-5×10^3 cells/well, cultured overnight, and transfected with the oligonucleotide duplexes. After 72 hour of transfection, 10 uL of CCK-8 solution (Dojindo Molecular Technologies) was added into each well. After 1 hour of incubation at 37° C., a microplate reader was used to measure absorbances at 450 nm.
(§2) In order to further evaluate the effect of LHPP saRNAs in inducing the mRNA expression of the LHPP gene and inhibiting the proliferation of cancer cells, eight screened saRNAs (RAG7-132, RAG7-133, RAG7-139, RAG7-177, RAG7-178, RAG7-694, RAG7-707 and RAG7-892) each were transfected into the liver cancer cell lines Huh7 (Medical Cell Resource Center, Tohoku University, Japan), HepG2 (ATCC), Hep3B (ATCC), Li-7 (Medical Cell Resource Center, Tohoku University, Japan) and SK-HEP-1 (ATCC), a lung cancer cell line A549 (ATCC), a bladder cancer cell line T24 (ATCC), a prostatic cancer cell line PC3 (ATCC), and a glioma cell line U87MG (ATCC). The mRNA expression and cell viability of the transfected cells were measured.
Background: Tetrazolium dyes change colour on reduction, which living cells bring about.

In the next data set the test system is LHPP gene. Briefly: LHPP mRNA expression by RT-qPCR in cancer cell lines. In kind it is cell-based, human. Particulars: 72 h. The method, then:
8 LHPP promoter-targeting saRNAs were individually transfected into liver cancer cells at 10 nM for 72 h. In FIG. 6A, the expression level of LHPP mRNA was analyzed by RT-qPCR. In FIG. 6B, cell viability in the saRNA treatment group was evaluated by the CCK-8 method and recorded as a percentage relative to the viability of cells in a control (Mock) treatment group.
as §1, §2
(In general: Quantitative PCR measures a nucleic acid by following its amplification.)

As to “RAG7-133: saRNA duplex; sense GCUCUUUGUCCGCUGAUCUTT (SEQ ID NO: 1), antisense AGAUCAGCGGACAAAGAGCTT (SEQ ID NO: 165) (sugars from the 5' end r19 d2, backbone not given here)”, in the data set on U87MG transplanted tumor, the “tumor volume increase compared with that at the beginning of treatment” value is reported as 167%. Besides, in data set [1], the “cell proliferation (cell viability, CCK-8)” value is “inhibited cell proliferation”. Besides, the “expression of LHPP gene (mRNA)” value in the data set with LHPP gene (Hep3B, 10 nM, FIG. 6A) is “induced the expression of LHPP gene to different degrees”; in the data set with LHPP gene (HepG2, 10 nM, FIG. 6A), “induced the expression of LHPP gene to different degrees”; with LHPP gene (Huh7, 10 nM, FIG. 6A), “induced the expression of LHPP gene to different degrees”; in the data set on LHPP gene (Li-7, 10 nM, FIG. 6A) it was “induced the expression of LHPP gene to different degrees”; in the data set with LHPP gene (PC3, 10 nM, FIG. 7A), “induced the expression of LHPP gene to different degrees”; in the data set on LHPP gene (SK-HEP-1, 10 nM, FIG. 6A), “induced the expression of LHPP gene to different degrees”. Moreover, the “expression of LHPP gene (mRNA)” value is on record as “induced the expression of LHPP gene to different degrees” in the data set with LHPP gene (T24, 10 nM, FIG. 7A) and “induced the expression of LHPP gene to different degrees” in the data set with LHPP gene (U87MG, 10 nM, FIG. 7A).
